Data reported in US8258309B2, “Azapeptide derivatives” (priority 2007, dated 2012).
Read-outs that look alike come from different tables or passages of the source.

Assays:
HIV-1RF = experiment: HIV anti-viral activity in CEM-SS cells infected with HIV-1 (XTT); format: cell-based
Protocol: The HIV antiviral activity of compound of the present invention was tested in CEM-SS cells infected with HIV-1. CEM-SS cells were passaged in T-75 flasks in RPMI 1640 medium supplemented with 10% heat inactivated fetal bovine serum, 2 mmol/L L-glutamine, 100 U/mL penicillin and 100 flg/mL streptomycin prior to use in the antiviral assay. On the day preceding the assay, the cells were split 1:2 to assure they were in an exponential growth phase at the time of infection. Total cell and viability quantification was performed using a hemocytometer and Trypan Blue dye exclusion. Cell viability was greater than 95% for the cells to be utilized in the assay. The cells were resuspended at 5×10^4 cells per mL in tissue culture medium and added to the drug-containing microtiter plates in a volume of 50 μL.
The virus used for the assay was the lymphocyte-tropic virus strain HIV-IRF. The virus was obtained from the NIH AIDS Research and Reference Reagent Program and stock virus pools were produced in CEM-SS cells. A pre-titered aliquot of virus was removed from the freezer (−80° C.) and allowed to thaw slowly to room temperature in a biological safety cabinet. Virus was resuspended and diluted into tissue culture medium such that the amount of virus added to each well in a volume of 50 μL was the amount determined to yield 85 to 95% cell killing at 6 days post-infection.
Each plate contains cell control wells (cells only), virus control wells (cells plus virus), compound toxicity wells (cells plus compound only), compound colorimetric control wells (compound only) as well as experimental wells (compound plus cells plus virus). Samples were tested in triplicate with eleven half-log dilutions per compound starting at 0.1 μM of compound. Compounds 104, 120 and 122 were tested, as was atazanavir and AZT. […]
Following incubation at 37° C. in a 5% CO2 incubator, the test plates were stained with the tetrazolium dye XTT (2,3-bis(2-methoxy-4-nitro-5sulfophenyl)-5-[(phenylamino)carbonyl]-2H-tetrazolium hydroxide). XTT-tetrazolium was metabolized by the mitochondrial enzymes of metabolically active cells to a soluble formazan product, allowing rapid quantitative analysis of the inhibition of HIV induced cell killing by anti-HIV test substances. XTT solution was prepared daily as a stock of 1 mg/mL in RPMI 1640. Phenazine methosulfate (PMS) solution was prepared at 0.15 mg/mL in PBS and stored in the dark at −20° C. XTT/PMS stock was prepared immediately before use by adding 40 μL of PMS per mL of XTT solution. Fifty microliters of XTT/PMS was added to each well of the plate and the plate was reincubated for 4 hours at 37° C. Plates were sealed with adhesive plate sealers and shaken gently or inverted several times to mix the soluble formazan product and the plate was read spectrophotometrically at 450/650 nm with a Molecular Devices Vmax plate reader.
Raw data was collected from the Softmax Pro 4.6 software and imported into a Microsoft Excel 2003 spreadsheet for analysis by linear curve fit calculations.

[1] = Microsomal assay: stability in human liver microsomes; format: in vitro ADME; settings: for half-life at 1 μM: liver microsomes; for half-life as compared to atazanavir: human liver microsomes, first run
Protocol: Microsomal Assay. Human liver microsomes (20 mg/mL, pool of 50 individuals) were obtained from Xenotech LLC (Lenexa, Kans.). The incubation mixtures are prepared as follows. Stock solutions (10 mM) solutions of test Compounds 103, 106, 122 and of atazanavir were prepared in DMSO. The 10 mM stock solutions were diluted to 1 mM in acetonitrile (ACN). […] The microsome-test compound mixtures were added to wells of a 2 mL 96-well deep well polypropylene plate in triplicate. The plate was warmed to 37° C. before initiating the reactions by addition of prewarmed NADPH in 0.1 M potassium phosphate buffer, pH 7.4, containing 3 mM MgCl2. The final reaction mixture composition contained: • Liver Microsomes 0.5 mg/mL • NADPH 2 mM • Potassium Phosphate, pH 7.4 100 mM • Magnesium Chloride 3 mM • Test Compound 1.0 μM. The reaction mixtures were incubated at 37° C. and 50 μL aliquots were removed at 0, 3, 7, 12, 20, and 30 minutes and added to shallow-well 96-well plates which contained 50 μL of ice-cold ACN with internal standard to stop the reactions. The plates were stored at −20° C. for 30 minutes, after which 100 μL of water was added to the wells of the plate before centrifugation to pellet precipitated proteins. Supernatants were transferred to another 96-well plate and analyzed for amounts of parent remaining by LC-MS/MS using an Applied Biosystems API 4000 mass spectrometer. […] Data analysis was performed using Microsoft Excel Software. […] The results are shown in FIGS. 2 and 3 and in Table 3, below: […]

[2] = No Serum Protein Added (cell culture medium)
[3] = human, pH 7.4, human liver microsomes, repeated assay (Table 3), read-out: t1/2 (min) Avg ± SD (n = 3)
[4] = human, pH 7.4, human liver microsomes 0.5 mg/mL, 1.0 μM test compound, first run (Table 2), read-out: T1/2 ± SD

**Q.** With `Cc1cn([C@H]2C[C@H](N=[N+]=[N-])[C@@H](CO)O2)c(=O)[nH]c1=O` [AZT, reference compound] as the compound, how does the EC50 (HIV-1RF; +0.5 mg/mL AAGP) read?
**A.** Its EC50 is 1 nM.

**Q.** What about the EC50 (HIV-1RF; +10 mg/mL HAS) of the same compound?
**A.** The EC50 was 2 nM.

**Q.** What about the EC50 (HIV-1RF; +AAGP + HSA) of the same compound?
**A.** Its EC50 is 2 nM.

**Q.** And the EC50 (HIV-1RF; [2])?
**A.** Its EC50 is 2 nM.

**Q.** For `[2H]C([2H])(c1ccc(-c2ccccn2)cc1)N(C[C@H](O)[C@H](Cc1ccccc1)NC(=O)[C@@H](NC(=O)OC)C(C([2H])([2H])[2H])(C([2H])([2H])[2H])C([2H])([2H])[2H])NC(=O)[C@@H](NC(=O)OC)C(C)(C)C` [Compound 111, 1,14-Dimethyl(3S,8S,9S,12S)-3-(1,1-dimethylethyl)-12-[(1,1-dimethylethyl)-d9]-8-hydroxy-4,11-dioxo-9-(phenylmethyl)-6-[[4-(2-pyridinyl)phenyl]methyl-d2]2,5,6,10,13-pentaazatetradecanedioate], which half-life at 1 μM [1, 3] is on record?
**A.** Its half-life at 1 μM is 23.9 ± 0.3 min.

**Q.** For `[2H]C([2H])([2H])OC(=O)N[C@H](C(=O)N[C@@H](Cc1ccccc1)[C@@H](O)CN(Cc1ccc(-c2ccccn2)cc1)NC(=O)[C@@H](NC(=O)OC([2H])([2H])[2H])C(C)(C)C)C(C)(C)C` [Compound 103, 1,14-Di(methyl-d3)(3S,8S,9S,12S)-3,12-bis(1,1-dimethylethyl)-8-hydroxy-4,11-dioxo-9-(phenylmethyl)-6-[[4-(2-pyridinyl)phenyl]methyl]-2,5,6,10,13-pentaazatetradecanedioate], which “half-life as compared to atazanavir” value [1] is on record?
**A.** Its value is “increased half-life”.

**Q.** What about the “% change in t1/2” value ([1]; human, 1 μM, pH 7.4) of the same compound?
**A.** Its value is −9%.

**Q.** And the half-life at 1 μM [1, 4]?
**A.** The half-life at 1 μM was 20.2 ± 4.22 min.

**Q.** And the half-life at 1 μM [1, 3]?
**A.** Its half-life at 1 μM is 17.2 ± 0.9 min.

**Q.** With “1,14-Dimethyl(3S,8S,9S,12S)-3-(1,1-dimethylethyl)-12-[(1,1-dimethylethyl)-d9]-8-hydroxy-4,11-dioxo-9-(phenylmethyl)-6-[[4-(2-pyridinyl)phenyl]methyl]-2,5,6,10,13-pentaazatetradecanedioate [Compound 104]” as the compound, how does the “fold increase of EC50 in the presence of AAGP” value (HIV-1RF; 0.5 mg/mL AAGP versus cell culture medium) read?
**A.** The value was “greater than 7 fold”.

**Q.** What about the “fold less potent in the presence of HSA than in cell culture medium alone” value (HIV-1RF; 10 mg/mL HSA versus cell culture medium) of the same compound?
**A.** The value was “two- to greater than three-fold less potent”.

**Q.** What about the EC50 (HIV-1RF; +0.5 mg/mL AAGP) of the same compound?
**A.** The EC50 was 2 nM.

**Q.** And the EC50 (HIV-1RF; +10 mg/mL HAS)?
**A.** The EC50 was 0.9 nM.

**Q.** What about the EC50 (HIV-1RF; +AAGP + HSA) of the same compound?
**A.** The EC50 was 4 nM.

**Q.** What about the “fold decrease of antiviral activity in the presence of AAGP plus HSA” value (HIV-1RF; AAGP plus HSA versus cell culture medium) of the same compound?
**A.** The value was “greater than 13 fold”.

**Q.** And the EC50 (HIV-1RF; [2])?
**A.** The EC50 was < 0.3 nM.

**Q.** What about the “t1/2 (min) Avg ± SD (n = 3)” value ([1]; human, microsomes) of the same compound?
**A.** The value was 23.3 ± 0.4 min.

**Q.** For `[2H]C([2H])([2H])OC(=O)N[C@H](C(=O)N[C@@H](Cc1ccccc1)[C@@H](O)CN(NC(=O)[C@@H](NC(=O)OC)C(C)(C)C)C([2H])([2H])c1ccc(-c2ccccn2)cc1)C(C([2H])([2H])[2H])(C([2H])([2H])[2H])C([2H])([2H])[2H]` [Compound 123, 1-Methyl-14-(methyl-d3)(3S,8S,9S,12S)-3-(1,1-dimethylethyl)-12-[(1,1-dimethylethyl)-d9]-8-hydroxy-4,11-dioxo-9-(phenylmethyl)-6-[[4-(2-pyridinyl)phenyl]methyl-2]-2,5,6,10,13-pentaazatetradecanedioate], which half-life at 1 μM [1, 3] is on record?
**A.** Its half-life at 1 μM is 23.9 ± 0.8 min.

**Q.** For `[2H]C([2H])([2H])C([C@H](NC(=O)OC)C(=O)N[C@@H](Cc1ccccc1)[C@@H](O)CN(Cc1ccc(-c2ccccn2)cc1)NC(=O)[C@@H](NC(=O)OC)C(C([2H])([2H])[2H])(C([2H])([2H])[2H])C([2H])([2H])[2H])(C([2H])([2H])[2H])C([2H])([2H])[2H]` [Compound 106, 1,14-Dimethyl(3S,8S,9S,12S)-3,12-bis[(1,1-dimethylethyl)-d9]-8-hydroxy-4,11-dioxo-9-(phenylmethyl)-6-[[4-(2-pyridinyl)phenyl]methyl]-2,5,6,10,13-pentaazatetradecanedioate], which “half-life as compared to atazanavir” value [1] is on record?
**A.** The value was “increased half-life”.

**Q.** And the “increase in half-life as compared to atazanavir” value ([1]; human, 1 μM, pH 7.4)?
**A.** Its value is “approximately 40%”.

**Q.** And the half-life at 1 μM [1, 4]?
**A.** Its half-life at 1 μM is 26.1 ± 0.99 min.

**Q.** And the half-life at 1 μM [1, 3]?
**A.** Its half-life at 1 μM is 25.6 ± 0.6 min.

**Q.** Which half-life at 1 μM [1, 3] does the source give for `[2H]C([2H])([2H])OC(=O)N[C@H](C(=O)N[C@@H](Cc1ccccc1)[C@@H](O)CN(Cc1ccc(-c2ccccn2)cc1)NC(=O)[C@@H](NC(=O)OC([2H])([2H])[2H])C(C([2H])([2H])[2H])(C([2H])([2H])[2H])C([2H])([2H])[2H])C(C)(C)C` [Compound 121, 1,14-Di(methyl-d3)(3S,8S,9S,12S)-3-[(1,1-dimethylethyl)-d9]-12-(1,1-dimethylethyl)-8-hydroxy-4,11-dioxo-9-(phenylmethyl)-6-[[4-(2-pyridinyl)phenyl]methyl]-2,5,6,10,13-pentaazatetradecanedioate] here?
**A.** Its half-life at 1 μM is 18.8 ± 1.5 min.

**Q.** Which half-life at 1 μM [1, 3] does the source give for `[2H]C([2H])([2H])OC(=O)N[C@H](C(=O)N[C@@H](Cc1ccccc1)[C@@H](O)CN(NC(=O)[C@@H](NC(=O)OC([2H])([2H])[2H])C(C([2H])([2H])[2H])(C([2H])([2H])[2H])C([2H])([2H])[2H])C([2H])([2H])c1ccc(-c2ccccn2)cc1)C(C([2H])([2H])[2H])(C([2H])([2H])[2H])C([2H])([2H])[2H]` [Compound 131, 1,14-Di(methyl-d3)(3S,8S,9S,12S)-3,12-bis[(1,1-dimethylethyl)-d9]-8-hydroxy-4,11-dioxo-9-(phenylmethyl)-6-[[4-(2-pyridinyl)phenyl]methyl-d2]-2,5,6,10,13-pentaazatetradecanedioate] here?
**A.** The half-life at 1 μM was 30.9 ± 1.4 min.
